Common to all, as to type: cell-based
In assay [1] the target is T1, TYK2 (Homo sapiens, UniProt P29597). Briefly: TYK2 degradation MSD assay in human PBMC cells. Also noted: endogenous in cells; host or cells: human PBMC. To be noted: 4 to 24 hours incubation, read-out: TYK2 MSD DC50 rating in human PBMC. In outline:
(§1)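 Compound-driven TYK2 loss is measured with a Meso Scale Discovery sandwich assay on whole-cell lysates. Cells are incubated 4 to 24 hours at 37° C with nine 1:3-diluted doses topping at 1 to 10 μM, and DC50 values derive from four-parameter curve fitting.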

In assay [2] the target is T1, TYK2. Briefly: TYK2 degradation MSD assay in EBV-B cells. On the set-up: endogenous in cells; host or cells: EBV-B cells. To be noted: 4 to 24 hours incubation, read-out: TYK2 MSD DC50 rating in EBV-B. An outline of the steps:
as §1

The target of assay [3] is T1, TYK2. Briefly: TYK2 degradation MSD assay in OCI-LY10 cells. Also noted: endogenous in cells; host or cells: EBV-B cells. Conditions: 4 to 24 hours incubation, read-out: TYK2 MSD DC50 rating in OCI-LY10. In outline: as §1

Consider 33 compounds from patent US20250051338A1, “TYK2 DEGRADERS AND USES THEREOF” (Kymera Therapeutics, Inc., priority 2021, published 2025).

T1 sequence (P29597 whole entry): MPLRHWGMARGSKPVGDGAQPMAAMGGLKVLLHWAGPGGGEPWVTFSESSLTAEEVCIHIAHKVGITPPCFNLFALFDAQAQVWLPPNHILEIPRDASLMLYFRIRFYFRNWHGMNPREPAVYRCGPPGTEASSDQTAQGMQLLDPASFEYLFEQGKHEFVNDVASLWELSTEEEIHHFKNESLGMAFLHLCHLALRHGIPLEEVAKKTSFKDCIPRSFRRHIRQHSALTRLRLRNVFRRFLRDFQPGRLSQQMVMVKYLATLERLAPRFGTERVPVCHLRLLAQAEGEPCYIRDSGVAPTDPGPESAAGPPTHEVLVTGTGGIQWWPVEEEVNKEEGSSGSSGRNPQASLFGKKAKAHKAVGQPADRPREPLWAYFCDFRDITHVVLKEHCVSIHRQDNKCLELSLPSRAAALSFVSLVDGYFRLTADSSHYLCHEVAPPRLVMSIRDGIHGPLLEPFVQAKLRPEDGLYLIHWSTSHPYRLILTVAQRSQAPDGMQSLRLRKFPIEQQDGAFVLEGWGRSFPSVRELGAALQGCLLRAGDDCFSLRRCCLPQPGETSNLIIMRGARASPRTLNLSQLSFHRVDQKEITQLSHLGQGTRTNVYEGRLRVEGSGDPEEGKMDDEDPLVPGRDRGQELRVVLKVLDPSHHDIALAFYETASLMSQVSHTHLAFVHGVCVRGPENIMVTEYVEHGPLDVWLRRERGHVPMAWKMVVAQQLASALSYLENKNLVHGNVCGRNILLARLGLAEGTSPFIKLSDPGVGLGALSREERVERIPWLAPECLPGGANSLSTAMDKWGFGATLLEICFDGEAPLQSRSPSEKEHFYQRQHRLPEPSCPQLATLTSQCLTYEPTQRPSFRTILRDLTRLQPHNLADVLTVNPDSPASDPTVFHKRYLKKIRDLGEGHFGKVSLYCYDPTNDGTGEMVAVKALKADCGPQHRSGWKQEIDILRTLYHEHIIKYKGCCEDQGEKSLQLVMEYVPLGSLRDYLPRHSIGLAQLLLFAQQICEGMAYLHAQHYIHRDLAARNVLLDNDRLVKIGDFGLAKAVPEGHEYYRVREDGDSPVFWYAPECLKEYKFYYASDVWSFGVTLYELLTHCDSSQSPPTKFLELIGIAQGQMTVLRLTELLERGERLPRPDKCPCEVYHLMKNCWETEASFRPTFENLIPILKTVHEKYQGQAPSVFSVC

The DC50 is the concentration at which degradation of the target reaches its halfway point. `CNC(=O)c1cnc(NC(=O)NCCCCCCCCCc2cccc3c2n(C)c(=O)n3C2CCC(=O)NC2=O)cc1Nc1cccc(-c2ncc(F)cn2)c1OC` (stereo not drawn) [Example K183]: the values for the DC50 at TYK2 [1], on TYK2 [2] and on TYK2 [3] were 1 to 10 nM, more than 100 nM and more than 100 nM, respectively.

As to `CNC(=O)c1cnc(NC(=O)NCCCCCCCCc2cccc3c2n(C)c(=O)n3C2CCC(=O)NC2=O)cc1Nc1cccc(-c2ncc(F)cn2)c1OC` (stereo not drawn) [Example K184], the DC50 at TYK2 [1] was 1 to 10 nM; at TYK2 [2], more than 100 nM; at TYK2 [3] it was more than 100 nM.

Take `CNC(=O)c1cnc(NC(=O)NCCCCCCCc2cccc3c2n(C)c(=O)n3C2CCC(=O)NC2=O)cc1Nc1cccc(-c2ncc(F)cn2)c1OC` (stereo not drawn) [Example K185]: the DC50 on TYK2 [1] is 1 to 10 nM; at TYK2 [2], more than 100 nM; at TYK2 [3] it was more than 100 nM.

Consider `CNC(=O)c1cnc(NC(=O)NCCCCCCCCCc2ccc3c(c2)n(C)c(=O)n3C2CCC(=O)NC2=O)cc1Nc1cccc(-c2ncc(F)cn2)c1OC` (stereo not drawn) [Example K186], for which the values for the DC50 on TYK2 [1], at TYK2 [2] and on TYK2 [3] were 1 to 10 nM, more than 100 nM and more than 100 nM, respectively.

With `CNC(=O)c1cnc(NC(=O)NCCCCCCCCc2ccc3c(c2)n(C)c(=O)n3C2CCC(=O)NC2=O)cc1Nc1cccc(-c2ncc(F)cn2)c1OC` (stereo not drawn) [Example K187], the DC50 on TYK2 [1] was 1 to 10 nM; on TYK2 [2], more than 100 nM; on TYK2 [3], more than 100 nM.

On to `CNC(=O)c1cnc(NC(=O)NCCCCCCCc2ccc3c(c2)n(C)c(=O)n3C2CCC(=O)NC2=O)cc1Nc1cccc(-c2ncc(F)cn2)c1OC` (stereo not drawn) [Example K188], for which the DC50 was less than 1 nM on TYK2 [1], more than 100 nM at TYK2 [2] and more than 100 nM at TYK2 [3].

In the case of `CNC(=O)c1cnc(Nc2ccc(C(=O)NCCCCc3cccc4c3n(C)c(=O)n4C3CCC(=O)NC3=O)cn2)cc1Nc1cccn(C)c1=O` (stereo not drawn) [Example K189], the DC50 was 10 to 100 nM on TYK2 [1], more than 100 nM on TYK2 [2] and 10 to 100 nM at TYK2 [3].

Take `CNC(=O)c1cnc(Nc2ccc(C(=O)NCCCCc3cccc4c3n(C)c(=O)n4C3CCC(=O)NC3=O)cn2)cc1Nc1ccccc1S(C)(=O)=O` (stereo not drawn) [Example K190]: the DC50 at TYK2 [1] was 1 to 10 nM; on TYK2 [2], 10 to 100 nM; at TYK2 [3], more than 100 nM.

For the compound `CNC(=O)c1cnc(Nc2ccc(C(=O)NCCCCc3cccc4c3n(C)c(=O)n4C3CCC(=O)NC3=O)cn2)cc1Nc1ccccc1OC` (stereo not drawn) [Example K191], the DC50 is 1 to 10 nM at TYK2 [1], more than 100 nM on TYK2 [2] and 1 to 10 nM on TYK2 [3].

In the case of `CNC(=O)c1cnc(Nc2ccc(C(=O)NCCCCc3cccc4c3n(C)c(=O)n4C3CCC(=O)NC3=O)cn2)cc1Nc1ccccc1` (stereo not drawn) [Example K192], the DC50 at TYK2 [1] was 1 to 10 nM; on TYK2 [2], more than 100 nM; at TYK2 [3], 1 to 10 nM.

For `CNC(=O)c1cnc(Nc2cc(C(=O)NCCCCCCc3cccc4c3n(C)c(=O)n4C3CCC(=O)NC3=O)ccn2)cc1Nc1cccc(-c2ncc(F)cn2)c1OC` (stereo not drawn) [Example K193], the half-maximal degradation concentration (DC50) on TYK2 [1] is 1 to 10 nM; at TYK2 [2], 1 to 10 nM; at TYK2 [3], more than 100 nM.

Regarding `CNC(=O)c1cnc(Nc2ccc(CN3CCN(Cc4ccc5c(c4)n(C)c(=O)n5C4CCC(=O)NC4=O)CC3)cn2)cc1Nc1cccc(-c2ncc(F)cn2)c1OC` (stereo not drawn) [Example K194], the figures for the DC50 at TYK2 [1], on TYK2 [2] and at TYK2 [3] were less than 1 nM, more than 100 nM and more than 100 nM, respectively.

`CNC(=O)c1cnc(Nc2ccc(C(=O)N(C)C3CCN(c4cccc5c4n(C)c(=O)n5C4CCC(=O)NC4=O)CC3)cn2)cc1Nc1ccccc1OC` (stereo not drawn) [Example K195]: the DC50 on TYK2 [1] was more than 100 nM; on TYK2 [2] it was 1 to 10 nM; at TYK2 [3], more than 100 nM.

Consider `CNC(=O)c1cnc(Nc2ccc(N3CCN(c4ccc5c(c4)n(C)c(=O)n5C4CCC(=O)NC4=O)CC3)cn2)cc1Nc1cccc(-c2ncc(F)cn2)c1OC` (stereo not drawn) [Example K196], for which the results for the DC50 at TYK2 [1], on TYK2 [2] and at TYK2 [3] were less than 1 nM, more than 100 nM and less than 1 nM, respectively.

`CNC(=O)c1cnc(Nc2ccc(C3CCN(Cc4ccc5c(c4)n(C)c(=O)n5C4CCC(=O)NC4=O)CC3)cn2)cc1Nc1cccc(-c2ncc(F)cn2)c1OC` (stereo not drawn) [Example K197]: the DC50 on TYK2 [1] is less than 1 nM; at TYK2 [2], more than 100 nM; at TYK2 [3] it was more than 100 nM.

Consider `CNC(=O)c1cnc(Nc2ccc(CN3CC(c4cccc5c4n(C)c(=O)n5C4CCC(=O)NC4=O)C3)cn2)cc1Nc1cccc(-c2ncc(F)cn2)c1OC` (stereo not drawn) [Example K198], for which the DC50 at TYK2 [1] is less than 1 nM; at TYK2 [2], more than 100 nM; on TYK2 [3] it was more than 100 nM.

For `CNC(=O)c1cnc(Nc2ccc(CN3CC(c4ccc5c(c4)n(C)c(=O)n5C4CCC(=O)NC4=O)C3)cn2)cc1Nc1cccc(-c2ncc(F)cn2)c1OC` (stereo not drawn) [Example K199], the DC50 at TYK2 [1] is 1 to 10 nM; at TYK2 [2], more than 100 nM; on TYK2 [3], more than 100 nM.

Take `Cn1c(=O)n(C2CCC(=O)NC2=O)c2ccc(CCOCCOCCNc3cc(Nc4cccn(-c5ccccn5)c4=O)nn4c(C(=O)N[C@@H]5C[C@@H]5F)cnc34)cc21` (stereo partly drawn) [Example K201]: the DC50 on TYK2 [1], at TYK2 [2] and at TYK2 [3] was more than 100 nM each time.

In the case of `Cn1c(=O)n(C2CCC(=O)NC2=O)c2ccc(CCOCCOCCOCCOCCNc3cc(Nc4cccn(-c5ccccn5)c4=O)nn4c(C(=O)NC5C[C@@H]5F)cnc34)cc21` (stereo partly drawn) [Example K202], the DC50 on TYK2 [1], on TYK2 [2] and on TYK2 [3] was more than 100 nM throughout.

Regarding `Cn1c(=O)n(C2CCC(=O)NC2=O)c2ccc(CCCCNc3cc(Nc4cccn(-c5ccccn5)c4=O)nn4c(C(=O)N[C@@H]5C[C@@H]5F)cnc34)cc21` (stereo partly drawn) [Example K204], the DC50 on TYK2 [1], on TYK2 [2] and at TYK2 [3] was more than 100 nM each time.

As for `Cn1c(=O)n(C2CCC(=O)NC2=O)c2cccc(CCCCNc3cc(Nc4cccn(-c5ccccn5)c4=O)nn4c(C(=O)N[C@@H]5C[C@@H]5F)cnc34)c21` (stereo partly drawn) [Example K205], the DC50 at TYK2 [1], on TYK2 [2] and at TYK2 [3] was more than 100 nM in each case.

`Cn1c(=O)n(C2CCC(=O)NC2=O)c2cccc(CCCCCCNc3cc(Nc4cccn(-c5ccccn5)c4=O)nn4c(C(=O)N[C@@H]5C[C@@H]5F)cnc34)c21` (stereo partly drawn) [Example K206]: the DC50 at TYK2 [1], on TYK2 [2] and on TYK2 [3] was more than 100 nM throughout.

Turning to `Cn1c(=O)n(C2CCC(=O)NC2=O)c2ccc(CCCCCCNc3cc(Nc4cccn(-c5ccccn5)c4=O)nn4c(C(=O)N[C@@H]5C[C@@H]5F)cnc34)cc21` (stereo partly drawn) [Example K207], the DC50 on TYK2 [1], at TYK2 [2] and on TYK2 [3] was more than 100 nM each time.

With `Cn1c(=O)n(C2CCC(=O)NC2=O)c2ccc(CCCCCCCCNc3cc(Nc4cccn(-c5ccccn5)c4=O)nn4c(C(=O)N[C@@H]5C[C@@H]5F)cnc34)cc21` (stereo partly drawn) [Example K208], the DC50 at TYK2 [1], at TYK2 [2] and on TYK2 [3] was more than 100 nM in each case.

As for `Cn1c(=O)n(C2CCC(=O)NC2=O)c2cccc(CCCCCCCCNc3cc(Nc4cccn(-c5ccccn5)c4=O)nn4c(C(=O)N[C@@H]5C[C@@H]5F)cnc34)c21` (stereo partly drawn) [Example K209], the DC50 on TYK2 [1], on TYK2 [2] and on TYK2 [3] was more than 100 nM throughout.

For the compound `Cn1c(=O)n(C2CCC(=O)NC2=O)c2ccc(CCCCCCCCCCNc3cc(Nc4cccn(-c5ccccn5)c4=O)nn4c(C(=O)N[C@@H]5C[C@@H]5F)cnc34)cc21` (stereo partly drawn) [Example K210], the half-maximal degradation concentration (DC50) on TYK2 [1], at TYK2 [2] and on TYK2 [3] was more than 100 nM each time.

As to `Cn1c(=O)n(C2CCC(=O)NC2=O)c2ccc(CCCCCCCCCCCCNc3cc(Nc4cccn(-c5ccccn5)c4=O)nn4c(C(=O)N[C@@H]5C[C@@H]5F)cnc34)cc21` (stereo partly drawn) [Example K211], the DC50 on TYK2 [1], at TYK2 [2] and on TYK2 [3] was more than 100 nM throughout.

As to `Cn1c(=O)n(C2CCC(=O)NC2=O)c2cccc(CCOCCOCCNc3cc(Nc4cccn(-c5ccccn5)c4=O)nn4c(C(=O)N[C@@H]5C[C@@H]5F)cnc34)c21` (stereo partly drawn) [Example K212], the DC50 on TYK2 [1], on TYK2 [2] and on TYK2 [3] was more than 100 nM each time.

Take `Cn1c(=O)n(C2CCC(=O)NC2=O)c2cccc(CCOCCOCCOCCOCCOCCOCCNc3cc(Nc4cccn(-c5ccccn5)c4=O)nn4c(C(=O)N[C@@H]5C[C@@H]5F)cnc34)c21` (stereo partly drawn) [Example K213]: the DC50 on TYK2 [1], at TYK2 [2] and at TYK2 [3] was more than 100 nM in each case.

As to `Cn1c(=O)n(C2CCC(=O)NC2=O)c2cccc(CCOCCOCCOCCOCCNc3cc(Nc4cccn(-c5ccccn5)c4=O)nn4c(C(=O)N[C@@H]5C[C@@H]5F)cnc34)c21` (stereo partly drawn) [Example K214], the DC50 at TYK2 [1], at TYK2 [2] and at TYK2 [3] was more than 100 nM each time.

Take `CNc1cc(Nc2cccn(-c3ccc(C(=O)NCCOCCOCCOCCOCCOCCOCCc4ccc5c(c4)n(C)c(=O)n5C4CCC(=O)NC4=O)cn3)c2=O)nn2c(C(=O)N[C@@H]3C[C@@H]3F)cnc12` (stereo partly drawn) [Example K215]: the DC50 at TYK2 [1] was 10 to 100 nM; at TYK2 [2], more than 100 nM; on TYK2 [3], more than 100 nM.

Turning to `CNc1cc(Nc2cccn(-c3ccc(C(=O)NCCOCCOCCc4cccc5c4n(C)c(=O)n5C4CCC(=O)NC4=O)cn3)c2=O)nn2c(C(=O)N[C@@H]3C[C@@H]3F)cnc12` (stereo partly drawn) [Example K216], the DC50 is 1 to 10 nM on TYK2 [1], more than 100 nM on TYK2 [2] and more than 100 nM at TYK2 [3].

As to `CNc1cc(Nc2cccn(-c3ccc(C(=O)NCCOCCOCCOCCOCCOCCOCCc4cccc5c4n(C)c(=O)n5C4CCC(=O)NC4=O)cn3)c2=O)nn2c(C(=O)N[C@@H]3C[C@@H]3F)cnc12` (stereo partly drawn) [Example K217], the DC50 on TYK2 [1] was 10 to 100 nM; on TYK2 [2] it was 10 to 100 nM; at TYK2 [3], more than 100 nM.
